# Test results published in patent publication US11589575B2, “Injectable preserving medium for preserving cells from placental blood, from bone marrow and from peripheral blood” (ETABLISSEMENT FRANCAIS DU SANG, priority 2015, dated 2023).
# “Also recorded” adds a separate entry of the source.
# Test system: placental blood CD34+ cells amplified ex vivo
# Test: Preservation at +4° C. of ex vivo amplified placental blood CD34+ cells (TNC viability and clonogenic CFC/CFU yield)
# Format: cell-based, human
# Details: for preserving of the functionality (clonogenicity) of amplified cells: cells stored at +4° C.
# Protocol: The cells, after ex vivo expansion, are more fragile than the original CD34+ cells, and the maintaining thereof is most critical at +4° C. (Duchez et al, 2013, supra).
# Throughout all the studies leading to the formulation of the biological preserving medium, the assays were conducted on placental blood CD34+ cells derived from a bank with storage at −196° C. Each assay was performed on one 1 or more samples.
# The placental blood CD34+ cells were isolated with an immunomagnetic system, then frozen and banked at −196° C.
# After thawing, the placental blood CD34+ cells (20000/ml) were placed in culture in HP01 medium in the presence of SCF (Stem Cell Factor) 100 ng/ml, Flt3 (FMS-like tyrosine kinase-3) 100 ng/ml, G-CSF (Granulocyte Colony Stimulating Factor) 10 ng/ml, and thrombopoietin (TPO) 20 ng/ml at 37° C., 5% CO2 and 85% humidity. At mid-culture, the addition was made of HP01 culture medium with the cytokines (1/5 dilution) and culture continued up to 9 to 12 days (generally 10 days).
# After culture, 2.5 ml of cell suspension were transferred to 2.5 ml gas-impermeable polypropylene tubes and centrifuged at 430 g for 10 minutes at 18° C. The supernatant was fully removed (with about 50 μl of supernatant remaining on the cell residue). Then, 2.45 ml of preserving medium to be assayed (at ambient temperature) were added to the tube and the tube sealed with the stopper; the cells being replaced in suspension with successive upturning movements. The samples were left at ambient temperature for 1 to 3 hours. Finally, the tubes were placed flat at +4° C. for times generally of 48 h to 72 h. Assays were also conducted in gas-permeable PVC pouches for comparative studies and in gas-impermeable EVA pouches.
# Analyses were performed on the amplified cells: counting and viability of TNCs (Total Nucleated Cells), clonogenic assays, sometimes with counting and viability of CD34+ cells. After the period at +4° C. for the defined times (48 h and 72 h), the cell samples were assayed: counting and viability of TNCs and clonogenic assays (at times also counting and viability of CD34+ cells).
# The quantity of viable total nucleated cells remaining after storage at 4° C. was compared with the quantity of viable total nucleated cells at the end of culture, to obtain a recovery yield of viable cells. Similarly, the yield of CFCs (Colony Forming Cells) was calculated. The values obtained were used to evaluate the advantage of one or more compounds in the formulation and to identify the optimal concentration of these compounds. The values were compared with those obtained with the HP02 preserving medium (Duchez et al, 2013, supra).
SMILES,preserving of the functionality (clonogenicity) of amplified cells,action throughout the assays on preservation of amplified cells (readout not further specified) (stored at +4° C.)
"O=C1O[C@H]([C@@H](O)CO)C(O)=C1O [vitamin C, Ascorbic acid]",lesser action,
"CC1=C(/C=C/C(C)=C/C=C/C(C)=C/CO)C(C)(C)CCC1 [vitamin A, Retinol]",lesser action,
"Cc1c(C)c2c(c(C)c1O)CC[C@@](C)(CCC[C@H](C)CCC[C@H](C)CCCC(C)C)O2 [vitamin E, Alpha-tocopherol]",the greatest action; also recorded: the most important action,effect close to or identical to the effect of Cernevit®
